Experimental data reported in US12502403B2, “Tafoxiparin for the treatment of preeclampsia” (DILAFOR AB, priority 2020, dated 2025).

How the values were obtained:
subcutaneous arteries [1] = test: Myograph: endothelin 1 (ET-1)-induced contraction of subcutaneous artery segments after pre-treatment and placental vesicles; format: cell-based, human; settings: for contraction to ET-1 / AUC / AUC/AUC (PE) % / % contractile change: Example 5, 10 μg/ml pre-incubation then PE vesicles; for AUC / AUC/AUC (PE) % / % contractile change: ET-1, pooled from five patients; for % contractile change: vs PE; for reduction of contraction induced with ET-1: vs PE vesicles only; for Emax [%] ET-1: relative to 60 mM potassium contraction; for logEC50 ET-1: EC50 of agonist ET-1; for effect on ET-1 mediated contraction with control P vesicles: vs vesicles only
Source text: (§1) In a myograph model, arteries from subcutaneous tissue of women undergoing Caesarian section were used. The contractile effect of arteries comprising vesicles derived from placentas from pre-eclamptic women was compared with the contractile effect of arteries comprising vesicles derived from placentas from non-preeclamptic women. […] The Low Molecular Weight Heparin (LMWH) tinzaparin (Innohep®, Leo Pharma Denmark) was used as a comparator.
(§2) Subcutaneous arteries were removed from the subcutaneous fat of the abdomen during Caesarean section and immediately put in cold DMEM-medium. Arteries were dissected in cold Na-Krebs buffer at a pH of 7.3-7.4 and cut into ring segments with a length of 1-2 mm as previously shown. The sections were mounted on two 40 μm-diameter wires and connected to a device sensitive to vascular tension. The stretching force property of the arteries were recorded with Mulvany-Halpern myographs. The mounted arterial segments were immersed into temperature-controlled (+37° C.) tissue baths containing bicarbonate-based buffer solution gassed with carbogen to obtain a pH of 7.3-7.4. Each segment was stretched to 90% of the normal internal circumference, which is the size each segment would have in a transmural pressure of 100 mm Hg. The contractile capacity of each artery segment was checked by exposure to 60 mM KCl buffer solution twice or three times to study viability. After each the bath was washed and the tone returned to baseline. When stable, different molecules or receptor agonists are added to the baths in concentration-dependent manner to observe the vasomotor responses of the vessels.
(§3) The artery segments were studied by exposure to angiotensin II or endothelin 1 in cumulative concentrations of the agonists. […] In some experiments, 30 minutes after adding vesicles to the tissue baths concentration-contraction curves were obtained by cumulative application of angiotensin II (angiotensin 1 and 2 receptor agonist, concentration range 10^−12 to 10^−6 M). After washing and the tension returning to base line, agonists are added. After washing and the tension returning to base line endothelin 1 was added (endothelin A and B receptor agonist, concentration range 10^−11 to 10^−7 M).
(§4) After 30 minutes, non-preeclampsia vesicles as control (P) or pre-eclampsia (PE) vesicles were added at a concentration of 200 μg (protein concentration 40 μg/mL).
(§5) 30 minutes after adding vesicles to the tissue baths, concentration-contraction curves were obtained by cumulative application of angiotensin II (A9525 Sigma-Aldrich Angiotensin II human, powder CAS Number 4474-91-3 dissolved in sodium chloride to a concentration of 10^−3 M) and used in the concentration range 10^−12 to 10^−6 M. After wash-out and the tension had returned to base line, ET-1 (ALX-155-001, Enzo Life Sciences) was added and recorded (endothelin A and B receptor agonist, concentration range 10^−11 to 10^−7 M).

subcutaneous arteries [2] = test: Myograph: endothelial function (relaxation to substance P after potassium pre-contraction); format: cell-based, human
Protocol: In some experiments the endothelial function was tested by pre-contraction the vessels with 30 mM potassium buffer, giving a stable tone and endothelium function evaluated by exposure to substance P (10^−6 or 10^−5 M).

subcutaneous arteries [3] = test: Myograph: angiotensin II-induced contraction of subcutaneous artery segments after pre-treatment and placental vesicles; settings: for contractile effect of AngII in the presence of PE: 10 μg/ml pre-incubation; for AUC / AUC/AUC (PE) % / % contractile change: AngII; for % contractile change: vs PE; for Emax [%] AngII: relative to 60 mM potassium contraction; for logEC50 AngII: EC50 of agonist AngII; for effect on Ang II mediated contraction with control P vesicles: vs vesicles only;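 on all read-outs here: wire myograph tension of human abdominal subcutaneous artery rings from Caesarean deliveries at 37 °C, 30 min pre-treatment, vesicles 30 min, then cumulative angiotensin II 10^−12 to 10^−6 M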
Source text: as §1, §2, §3, §4, §5

[4] = patient 14, 10 μg/ml before PE-vesicles
[5] = patient 14, 10 μg/ml pre-treatment then PE vesicles
[6] = patient 14, drug only, no vesicles
[7] = patient 14, pre-treatment then P vesicles
[8] = patient 14, pre-treatment then PE vesicles
[9] = patient 14, control (P) vesicles
[10] = Example 3, 10 μg/ml pre-incubation then PE vesicles, pooled from four patients
[11] = Example 4, 100 μg/ml pre-incubation then PE vesicles
[12] = Example 4, 100 μg/ml pre-incubation then PE vesicles, pooled from five patients
[13] = patient 14, 10 μg/ml before PE-vesicles, vs PE vesicles only
[14] = patient 13, 10 μg/ml pre-treatment then PE vesicles
[15] = patient 13, drug only, no vesicles
[16] = patient 13, pre-treatment then P vesicles
[17] = patient 13, control (P) vesicles

For tafoxiparin, the “contraction to ET-1” value (subcutaneous arteries [1]) was “significantly lower contraction”, the AUC (subcutaneous arteries [1]) was 193.1 and the “AUC/AUC (PE) %” value (subcutaneous arteries [1]) was 61.8%. The “% contractile change” value (subcutaneous arteries [1]) was −38%, the “reduction of contraction induced with ET-1” value (subcutaneous arteries [1]; [4]) was 56% and the “Emax [%] ET-1” value (subcutaneous arteries [1]; [5]) was 77%. For the same substance, the “logEC50 ET-1” value (subcutaneous arteries [1]; [6]) was 9.9, the “logEC50 ET-1” value (subcutaneous arteries [1]; [7]) was 7.7 and the “logEC50 ET-1” value (subcutaneous arteries [1]; [8]) was 6.9. The “effect on ET-1 mediated contraction with control P vesicles” value (subcutaneous arteries [1]; [9]) was “little or no effect”, the “Emax [%] ET-1” value (subcutaneous arteries [1]; [6]) was 180% and the “Emax [%] ET-1” value (subcutaneous arteries [1]; [7]) was 105%. The “Endothelial function [%]” value (subcutaneous arteries [2]; [6]) was 85%, the “Endothelial function [%]” value (subcutaneous arteries [2]; [7]) was 22% and the “Endothelial function [%]” value (subcutaneous arteries [2]; [8]) was 67%. The “contractile effect of AngII in the presence of PE” value (subcutaneous arteries [3]; Example 3) was “affect the contractile effect of AngII”, the AUC (subcutaneous arteries [3]; [10]) was 160.5 and the “AUC/AUC (PE) %” value (subcutaneous arteries [3]; [10]) was 68.5%. The “% contractile change” value (subcutaneous arteries [3]; [10]) was −31.5%, the AngII induced contraction (subcutaneous arteries [3]; [11]) was “significantly decreased” and the AUC (subcutaneous arteries [3]; [12]) was 306.5. For the same substance, the “AUC/AUC (PE) %” value (subcutaneous arteries [3]; [12]) was 70.8%, the “% contractile change” value (subcutaneous arteries [3]; [12]) was −29% and the “reduction of contraction induced with angiotensin II” value (subcutaneous arteries [3]; [13]) was 79%. For the same substance, the “Emax [%] AngII” value (subcutaneous arteries [3]; [5]) was 27%, the “logEC50 AngII” value (subcutaneous arteries [3]; [6]) was 10.2 and the “logEC50 AngII” value (subcutaneous arteries [3]; [7]) was 9.8. For the same substance, the “logEC50 AngII” value (subcutaneous arteries [3]; [8]) was 9.4, the “effect on Ang II mediated contraction with control P vesicles” value (subcutaneous arteries [3]; [9]) was “little or no effect” and the “Emax [%] AngII” value (subcutaneous arteries [3]; [6]) was 101%. For the same substance, the “Emax [%] AngII” value (subcutaneous arteries [3]; [7]) was 73%.

tinzaparin was tested, and the “contraction to ET-1” value (subcutaneous arteries [1]) was “significantly lower contraction”, the AUC (subcutaneous arteries [1]) was 259.5 and the “AUC/AUC (PE) %” value (subcutaneous arteries [1]) was 83.1%. For the same substance, the “% contractile change” value (subcutaneous arteries [1]) was −17%, the “contraction induced with ET-1 (the Emax) compared with PE vesicles only” value (subcutaneous arteries [1]; patient 13, 10 μg/ml before PE-vesicles) was “the same” and the “reduction of log EC50 (ET-1)” value (subcutaneous arteries [1]; patient 13, 10 μg/ml before PE-vesicles, extrapolated) was 35%. For the same substance, the “Emax [%] ET-1” value (subcutaneous arteries [1]; [14]) was 143%, the “logEC50 ET-1” value (subcutaneous arteries [1]; [15]) was 8.5 and the “logEC50 ET-1” value (subcutaneous arteries [1]; [16]) was 8.8. For the same substance, the “logEC50 ET-1” value (subcutaneous arteries [1]; patient 13, pre-treatment then PE vesicles (extrapolated)) was 5.7, the “effect on contraction in the presence of control vesicles (ET-1)” value (subcutaneous arteries [1]; [17]) was “did not appear to have any reducing effect” and the “Emax [%] ET-1” value (subcutaneous arteries [1]; [15]) was 144%. The “Emax [%] ET-1” value (subcutaneous arteries [1]; [16]) was 166%, the “reduction of contraction induced with ET-1” value (subcutaneous arteries [1]; [4]) was 15% and the “Emax [%] ET-1” value (subcutaneous arteries [1]; [5]) was 147%. For the same substance, the “logEC50 ET-1” value (subcutaneous arteries [1]; [7]) was 9.4, the “logEC50 ET-1” value (subcutaneous arteries [1]; [8]) was 9.9 and the “effect on ET-1 mediated contraction with control P vesicles” value (subcutaneous arteries [1]; [9]) was “increased contraction”. For the same substance, the “Emax [%] ET-1” value (subcutaneous arteries [1]; [7]) was 197%, the “Endothelial function [%]” value (subcutaneous arteries [2]; [15]) was 96% and the “Endothelial function [%]” value (subcutaneous arteries [2]; patient 13, pre-treatment then PE vesicles) was 119.95%. The “Endothelial function [%]” value (subcutaneous arteries [2]; patient 13, pre-treatment then non-preeclampsia (P) vesicles) was 69.11%, the “Endothelial function [%]” value (subcutaneous arteries [2]; [7]) was 22% and the “Endothelial function [%]” value (subcutaneous arteries [2]; [8]) was 1%. The “contractile effect of AngII in the presence of PE” value (subcutaneous arteries [3]; Example 3) was “affect the contractile response of AngII”, the AUC (subcutaneous arteries [3]; [10]) was 170.5 and the “AUC/AUC (PE) %” value (subcutaneous arteries [3]; [10]) was 72.7%. The “% contractile change” value (subcutaneous arteries [3]; [10]) was −27.3%, the AngII induced contraction (subcutaneous arteries [3]; [11]) was “significantly decreased” and the AUC (subcutaneous arteries [3]; [12]) was 299.6. For the same substance, the “AUC/AUC (PE) %” value (subcutaneous arteries [3]; [12]) was 69.3%, the “% contractile change” value (subcutaneous arteries [3]; [12]) was −31% and the “reduction of maximum contraction induced by angiotensin II” value (subcutaneous arteries [3]; patient 13, 10 μg/ml before PE-vesicles, vs PE vesicles only) was 23%. The “Emax [%] AngII” value (subcutaneous arteries [3]; [14]) was 75%, the “logEC50 AngII” value (subcutaneous arteries [3]; [16]) was 10.8 and the “effect on contraction in the presence of control vesicles (AngII)” value (subcutaneous arteries [3]; [17]) was “did not appear to have any reducing effect”. For the same substance, the “Emax [%] AngII” value (subcutaneous arteries [3]; [15]) was 69%, the “Emax [%] AngII” value (subcutaneous arteries [3]; patient 13, pre-treatment then P (non-PE) vesicles) was 103% and the “reduction of contraction induced with angiotensin II” value (subcutaneous arteries [3]; [13]) was 14%. The “Emax [%] AngII” value (subcutaneous arteries [3]; [5]) was 109%, the “logEC50 AngII” value (subcutaneous arteries [3]; [7]) was 10.0 and the “logEC50 AngII” value (subcutaneous arteries [3]; [8]) was 10.0. The “effect on Ang II mediated contraction with control P vesicles” value (subcutaneous arteries [3]; [9]) was “increased contraction” and the “Emax [%] AngII” value (subcutaneous arteries [3]; [7]) was 135%.
